Assay results reported in patent publication US11865098B1, “Methods and compositions for treating excessive sleepiness” (Axsome Malta Ltd., priority 2017, dated 2024).

What was measured:
[1] = test system: adult patients with OSA and ES; experiment: FOSQ-10, 12-week parallel study in OSA; type: in vivo, human
Experimental: The study was a 12-week, double-blind, placebo-controlled, parallel design study as described in greater detail in Example 1 (Schweitzer et al., Sleep 40(Abstract Supplement):A237. Abstract 0641 (2017)). Patients were randomized (1:1:2:2:2) to APC 37.5, 75, 150, 300 mg, or placebo for 12 weeks, and were stratified by adherence or non-adherence with primary OSA therapy (adherent definition was use for ≥4 hours per night on >70% of nights). Two patient-reported measures were included as secondary efficacy outcomes to evaluate the effects of APC on functional status and work productivity and activity impairment at baseline and weeks 1, 4, 8, and 12. The Functional Outcomes of Sleep questionnaire short version (FOSQ-10) (Chasens et al., Sleep 32(7):915 (2009)) evaluated the effects of ES on functioning. The Work Productivity and Activity Impairment questionnaire for Specific Health Problems (WPAI:SHP) (Reilly et al., Pharmacoeconomics 4(5):353 (1993); Reilly, Work Productivity and Activity Impairment Questionnaire: Specific Health Problem V2.0 (WPAI: SHP). www.reillyassociates.net/WPAI_SHP) evaluated work productivity impairment among employed patients and overall activity impairment outside of work among all patients for the past 7 days. Four outcomes are available from the WPAI:SHP: Absenteeism (percent work time missed due to health); Presenteeism (percent impairment while working due to health); Percent overall work impairment (calculated from absenteeism and presenteeism); and Percent activity impairment due to health. The FOSQ-10 was evaluated as change over time compared with placebo (least squares (LS) mean); the 4 WPAI outcomes were evaluated at week 12 compared to placebo. Efficacy analyses were based on the modified intent-to-treat population (mITT) and there was no multiplicity adjustment for the FOSQ-10 or WPAI:SHP. Safety and tolerability were assessed based on treatment-emergent adverse events (TEAEs), vital signs, electrocardiogram test, physical exams, Columbia-Suicide Severity Rating Scale, and laboratory tests in the safety population.

[2] = test system: adult patients with OSA and ES; experiment: ESS, 12-week placebo-controlled parallel study in OSA; type: in vivo, human; settings: 37.5, 75, 150, 300 mg; week 12
Experimental: The ESS is a subjective sleepiness test that is well known in the art and routinely used to measure the sleepiness level of a subject. The scale is intended to measure daytime sleepiness through the use of a short questionnaire that asks the subject to rate his or her probability of falling asleep on a scale of increasing probability from 0 to 3 for eight different situations that most people engage in during their daily lives. The scores for the eight questions are added together to obtain a single number that estimates the subject's average sleep propensity (ASP). […]
The study was a 12-week, double-blind, placebo-controlled, parallel design study as described in greater detail in Example 1 (Schweitzer et al., Sleep 40(Abstract Supplement):A237. Abstract 0641 (2017)). […] The Functional Outcomes of Sleep questionnaire short version (FOSQ-10) (Chasens et al., Sleep 32(7):915 (2009)) evaluated the effects of ES on functioning. The Work Productivity and Activity Impairment questionnaire for Specific Health Problems (WPAI:SHP) (Reilly et al., Pharmacoeconomics 4(5):353 (1993); Reilly, Work Productivity and Activity Impairment Questionnaire: Specific Health Problem V2.0 (WPAI: SHP). www.reillyassociates.net/WPAI_SHP) evaluated work productivity impairment among employed patients and overall activity impairment outside of work among all patients for the past 7 days. […]

Q: How did the “FOSQ-10 scores at week 12” value ([1]; 37.5 to 300 mg, mITT) turn out when `NC(=O)OC[C@H](N)Cc1ccccc1` [JZP-110, (R)-2-amino-3-phenylpropyl carbamate] was run?
A: Its value is “dose dependently increased FOSQ-10 scores”.

Q: What about the “FOSQ-10, time at which improvements were observed” value ([1]; 150 and 300 mg doses) of the same compound?
A: Its value is “as early as week 1”.

Q: What about the “FOSQ-10 scores at week 12, effect relative to placebo” value ([1]; 150 and 300 mg doses) of the same compound?
A: The value was “statistically significant effects”.

Q: And the “Co-primary ESS endpoint” value [2]?
A: The value was “met at all doses”.
